Data as given in patent US4847290A, “Delta 1-thc-7-oic acid and analgesic and anti-inflammatory agents” (priority 1987, dated 1989).
“And” between values parts separate entries of the source, which are not always exact repeats. Equal values may be shown once. “Also recorded” adds a separate entry of the source. Read-outs that look alike come from different tables or passages of the source.

What was measured:
[1] = Mouse Carrageenan Edema Test; assay type: in vivo, mouse (Charles River CD-1, female); settings: 3 h after carrageenan; for Paw Volume (edema volume): ± S.D.
Description: The basic experimental procedure was adapted from Sophia et al., J. Pharma. Exper. Ther. 186:646, 1973. Charles Rivier CD-1 female mice (20-25 g) were given a dose of either Δ^1 -THC-7-oic-acid, indomethacin or vehicle (control). All compounds were administered orally in a 20 ul volume of peanut oil. One hour later, 0.05 ml of a 1% solution of calcium carrageenan in saline was injected subcutaneously into the plantar surface of the right hind paw. The volume of the injected foot to the level of the lateral malleolus was measured by water displacement immediately before oral drug administration and again three hours after carrageenan injection. The difference between the two measurements was called edema volume. The effectiveness of each compound was analyzed in the following manner. For Δ^1 -THC-7-oic-acid, the mean paw volumes, before and after the metabolite was administered, were statistically compared by one-way ANOVA (analysis of variance) and Fisher PLSD Scheffe t-tests. For indomethacin, the mean paw volumes, pre- and postdrug, were statistically compared using the student's t-test. The percent inhibition of edema volume was obtained from the ratio of the predrug volume to the postdrug volume (Table II).

[2] = Rat Ulcerogenicity Test; assay type: in vivo, rat (Charles River CD); settings: for Incidence (number of rats with lesions/total tested) / Mean Score of gastric mucosal lesions: stomach tube, 1 h; for Mean Score of gastric mucosal lesions: scale 0 (normal mucosa) to 3 (erosions longer than 5 mm or confluent hemorrhages)
Description: Experimental groups of 5-11 rats (Charles River CD) were fasted for 24 hours before the administration of either aspirin, Δ^1 -THC-7-oic-acid or indomethacin by a rubber stomach tube (Rusch No. 8). The animals were killed 1 hour later by carbon dioxide asphyxiation. At that time, 4 ml of 10% aqueous buffered formaldehyde (formalin) was injected directly into the stomach of each animal. This in situ intraluminal fixation with formalin was especially critical for the assessment of small gastric erosions induced by aspirin since the overlying hemorrhage could easily be removed by rinsing the unfixed stomach. After 5 minutes of in situ fixation, the stomach and proximal duodenum were removed, opened along the greater curvature, pinned on a cork with mucosa upward, and immersed in 10% formaldehyde until further processing (Szabo, S. et al, J. Pharmacol. Meth. 13:59-66, 1985). The gastric lesions were then evaluated by direct visual inspection.
For comparative purposes, a semiquantitative scale of 0-3 was used to assess the extent of gastric mucosal lesions (Scabo et al., 1981, 1983). According to this scale, a score of 0 indicates a normal mucosa; 1 represents the appearance of between 1 and 4 small petechiae; 2 indicates the presence of 5 or more petechiae or hemmorhagic streaks up to 4 mm in length; 3 represents the appearance of erosions longer than 5 mm or confluent hemorrhages.

[3] = humans; cited from earlier work
[4] = system: prostaglandin synthetase system; settings: variety of models; cited from earlier work
[5] = rhesus monkey; cited from earlier work
[6] = system: prostaglandin synthesis; settings: metabolite added to culture medium prior to THC exposure; cited from earlier work
[7] = design: species or system mouse (Charles River CD-1); settings: mouse, in vivo

Row | Structure (SMILES) | % Inhibition of Edema Volume ([1]; 20 mg/kg oral) [%] | Paw Volume (edema volume) ([1]; 20 mg/kg oral) [µL] | % Inhibition of Edema Volume ([1]; 40 mg/kg oral) [%] | Paw Volume (edema volume) ([1]; 40 mg/kg oral) [µL] | ulcer / gastric lesion formation (in words) ([2]; 50 mg/kg, directly into the stomach) | Incidence (number of rats with lesions/total tested) ([2]; 50 mg/kg) | Mean Score of gastric mucosal lesions ([2]; 50 mg/kg) | behavioral activity and cardiovascular effects [3] | inhibition of the prostaglandin synthetase system [4] | behavioral activity and cardiovascular effects [5] | antagonism of the stimulatory effect of THC on prostaglandin synthesis [6] | analgesic (pain-relieving) effect / potency relative to naproxen ([7]; po) | gastric lesions / gastrointestinal damage (in words) ([2]; 100 mg/kg, half the therapeutic dose, into the stomach) | Incidence (number of rats with lesions/total tested) ([2]; 100 mg/kg) | Mean Score of gastric mucosal lesions ([2]; 100 mg/kg) | Incidence (number of rats with lesions/total tested) ([2]; 10 mg/kg) | Mean Score of gastric mucosal lesions ([2]; 10 mg/kg) | Incidence (number of rats with lesions/total tested) ([2]; 20 mg/kg) | Mean Score of gastric mucosal lesions ([2]; 20 mg/kg) | Latency (percent change of the mean reaction time compared to predrug values) [7]
1 | CCCCCc1cc(O)c2c(c1)OC(C)(C)[C@@H]1CCC(C(=O)O)=CC21 (single isomer, unassigned) [Δ^1 -THC-7-oic-acid] | 53 | 9 ± 12 | 79 | 4 ± 13 | did not induce ulcer formation; also recorded: does not induce the formation of gastric lesions | 0/10 | 0.0 | did not show the behavioral activity or the cardiovascular effects characteristic of the parent substance, THC | potent inhibitor of the prostaglandin synthetase system | did not show the behavioral activity or the cardiovascular effects characteristic of the parent substance, THC | dramatic lowering of the stimulatory effect of THC on prostaglandin synthesis | merely equivalent to that of naproxen; also recorded: exhibits analgesic activity with a potency similar to that of naproxen | – | – | – | – | – | – | – | –
2 | CC(=O)Oc1ccccc1C(=O)O [Aspirin] | – | – | – | – | – | – | – | – | – | – | – | – | induced the formation of gastric lesions in each test animal; also recorded: each of the experimental animals experiences gastrointestinal damage | 10/10 | 1.9 | – | – | – | – | –
3 | COc1ccc2c(c1)c(CC(=O)O)c(C)n2C(=O)c1ccc(Cl)cc1 [Indomethacin, reference compound] | 100 | -13 ± 17 | – | – | – | – | – | – | – | – | – | – | – | – | – | 2/5 | 0.6 | 6/11 | 0.77 | 52.7 and 51.1
